# Results as given in ChEMBL document CHEMBL5634207, “Helical sulfonyl-γ-AApeptides for the inhibition of HIV-1 fusion and HIF-1α signaling” (RSC Med Chem, 2024).
# Assays:
# [1] = tested on: Human immunodeficiency virus 1; assay: Antiviral activity against HIV-1 IIIB infected in human MT2 cells incubated overnight by ELISA method; assay type: functional, organism-based; conditions: Human immunodeficiency virus 1, MT2
# [2] = Cytotoxicity against human MT2 cells; assay type: toxicity, cell-based
# [3] = target: Hypoxia-inducible factor 1-alpha (Homo sapiens, UniProt Q16665); assay: Binding affinity to HIF-1alpha (unknown origin) assessed as dissociation constant
# Hypoxia-inducible factor 1-alpha, sequence (Q16665 whole entry): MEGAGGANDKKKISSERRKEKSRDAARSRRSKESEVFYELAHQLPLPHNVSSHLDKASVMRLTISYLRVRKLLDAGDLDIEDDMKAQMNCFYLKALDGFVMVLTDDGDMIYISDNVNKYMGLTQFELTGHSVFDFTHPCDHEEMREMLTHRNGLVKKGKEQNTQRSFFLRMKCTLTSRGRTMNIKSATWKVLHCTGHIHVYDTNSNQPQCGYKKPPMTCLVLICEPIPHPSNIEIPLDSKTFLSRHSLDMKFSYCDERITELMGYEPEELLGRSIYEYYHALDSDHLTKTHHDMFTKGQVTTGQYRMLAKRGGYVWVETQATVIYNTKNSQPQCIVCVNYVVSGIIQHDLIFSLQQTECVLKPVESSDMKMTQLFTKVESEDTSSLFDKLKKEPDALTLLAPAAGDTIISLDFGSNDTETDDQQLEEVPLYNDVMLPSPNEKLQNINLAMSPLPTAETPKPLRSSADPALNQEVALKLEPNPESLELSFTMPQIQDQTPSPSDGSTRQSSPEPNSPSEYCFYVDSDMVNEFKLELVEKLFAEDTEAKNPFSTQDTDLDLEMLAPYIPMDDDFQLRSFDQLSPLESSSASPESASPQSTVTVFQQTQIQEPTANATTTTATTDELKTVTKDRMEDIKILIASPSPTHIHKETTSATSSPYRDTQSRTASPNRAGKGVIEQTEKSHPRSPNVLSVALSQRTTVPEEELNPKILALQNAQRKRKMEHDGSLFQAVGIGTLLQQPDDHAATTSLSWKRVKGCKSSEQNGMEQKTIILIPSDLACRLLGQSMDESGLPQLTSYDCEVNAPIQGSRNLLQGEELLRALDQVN
Kd [3] [µM],Compound,IC50 [1] [µM],CC50 [2] [µM]
–,enfuvirtide,0.036,> 100
0.097,CC(=O)N[C@@H](CC(C)C)CN(CC(=O)N[C@@H](CCC(=O)O)CN(CC(=O)N[C@@H](CC(C)C)CN(CC(=O)N[C@@H](CCCCN)CN(CC(=O)N[C@@H](CC(C)C)CN(CC(N)=O)S(=O)(=O)CCN)S(C)(=O)=O)S(C)(=O)=O)S(=O)(=O)CC(C)C)S(C)(=O)=O,–,–
0.514,CC(=O)N[C@@H](CCC(=O)O)C(=O)N[C@@H](CC(C)C)CN(CC(=O)N[C@@H](CC(C)C)CN(CC(=O)N[C@@H](CC(C)C)CN(CC(=O)N[C@@H](C)CN(CC(=O)N[C@@H](C)CN(CC(=O)N[C@@H](CCC(N)=O)C(N)=O)S(=O)(=O)CC(C)C)S(C)(=O)=O)S(=O)(=O)CC(C)C)S(=O)(=O)CCN)S(=O)(=O)CC(C)C,–,–
0.489,CC(=O)N[C@@H](CCC(=O)O)CN(CC(=O)N[C@@H](CC(C)C)CN(CC(=O)N[C@@H](C)CN(CC(=O)N[C@@H](CCC(=O)O)CN(CC(=O)N[C@@H](CC(C)C)CN(CC(N)=O)S(=O)(=O)CC(C)C)S(C)(=O)=O)S(=O)(=O)CC(C)C)S(=O)(=O)CCN)S(=O)(=O)CC(C)C,–,–
> 10,Ac-EELLRALDQV-OH,–,–
